Reference: patent publication US12612410B2 (CHILDREN'S HOSPITAL MEDICAL CENTER, priority 2020, dated 2026)

What was measured:
Format in all cases: cell-based
FLT3 = target: T1, FLT3 (Homo sapiens, UniProt P36888); assay: Reaction Biology NanoBRET target engagement assay, FLT3; conditions: transfected HEK-293 cells
T1 sequence (P36888 27-993): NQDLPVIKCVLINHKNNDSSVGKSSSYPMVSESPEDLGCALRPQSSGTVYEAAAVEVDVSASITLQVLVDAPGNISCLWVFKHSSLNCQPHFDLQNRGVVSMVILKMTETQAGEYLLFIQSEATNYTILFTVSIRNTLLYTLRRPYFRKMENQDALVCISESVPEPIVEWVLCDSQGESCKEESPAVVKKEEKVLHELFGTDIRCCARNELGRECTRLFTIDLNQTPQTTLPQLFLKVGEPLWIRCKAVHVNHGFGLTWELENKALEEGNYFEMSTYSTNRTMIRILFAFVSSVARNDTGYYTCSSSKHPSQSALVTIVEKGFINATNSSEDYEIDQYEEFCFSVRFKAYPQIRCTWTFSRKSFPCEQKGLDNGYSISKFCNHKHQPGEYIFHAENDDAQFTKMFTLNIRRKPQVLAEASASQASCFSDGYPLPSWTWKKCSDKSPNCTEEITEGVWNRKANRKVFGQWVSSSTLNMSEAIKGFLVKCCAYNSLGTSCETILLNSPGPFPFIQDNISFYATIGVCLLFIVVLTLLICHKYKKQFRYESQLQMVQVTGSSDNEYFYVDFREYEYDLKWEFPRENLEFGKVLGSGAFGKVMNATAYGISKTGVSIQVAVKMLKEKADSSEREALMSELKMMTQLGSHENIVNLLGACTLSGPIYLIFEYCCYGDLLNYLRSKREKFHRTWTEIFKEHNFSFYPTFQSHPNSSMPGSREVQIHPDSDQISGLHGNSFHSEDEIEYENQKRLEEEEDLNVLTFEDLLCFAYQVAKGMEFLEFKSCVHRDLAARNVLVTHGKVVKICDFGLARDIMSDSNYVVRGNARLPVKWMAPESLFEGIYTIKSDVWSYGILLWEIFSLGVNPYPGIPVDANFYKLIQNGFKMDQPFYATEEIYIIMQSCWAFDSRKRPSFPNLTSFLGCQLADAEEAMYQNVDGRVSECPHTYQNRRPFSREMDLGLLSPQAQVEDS
Source text: The NanoBRET assay measures kinase engagement in real time in the context of the intact cell. Unlike the previously described biochemical kinase assay methodologies in Examples 26-27, the NanoBRET assay measures the binding and activity characteristics under equilibrium conditions using full-length kinases in the presence of cellular concentrations of ATP in live, uncompromised cells. As such, the assay provides a more relevant assessment of kinase potency and selectivity that would be expected to be observed in the native cellular environment, where potency is often considerably lower than that observed in the isolated biochemical assays (Vasta, J. D. et al., (2018) Cell Chem. Biol. 25, 206-214). The assay uses a Kinase-NanoLuc® fusion vector expressing a kinase protein to which a luciferase tag has been added, a cell-permeant fluorescent NanoBRET™ tracer, a NanoLuc® substrate, and an extracellular NanoLuc® inhibitor. Upon expression of the luciferase-tagged kinase, cells will produce a strong BRET signal only in the presence of the NanoBRET™ tracer. The extracellular NanoLuc® inhibitor ensures that the BRET signal observed emanates only from live cells. Because the BRET signal has tight distance constraints, addition of the test compound will decrease the BRET signal if the compound competes with the NanoBRET™ tracer for binding to the kinase domain. Under the appropriate tracer conditions established by the manufacturer, quantitative intracellular affinity and relative potency can then be determined using Mass Action model equations.
HEK-293 cells were purchased from ATCC. FuGENEHD Transfection Reagent, Kinase-NanoLucfusion plasmids, Transfection Carrier DNA, NanoBRETTracers and dilution buffer, NanoBRETNano-Glo Substrate, Extracellular NanoLucInhibitor were obtained from Promega.
Assays were conducted following Promega assay protocol with some modifications. HEK-293 Cells were transiently transfected with Kinase-NanoLucFusion Vector DNA by FuGENEHD Transfection Reagent. Testing compounds were delivered into 384 well assay plate by Echo 550 (Labcytelnc, Sunnyvale, CA). Transfected cells were harvested and mixed with NanoBRETTracer Reagent and dispensed into 384 well plates and incubated at 37° C. in 5% CO2 cell culture incubator for 1 hour. The NanoBRETNano-Glo Substrate plus Extracellular NanoLucInhibitor Solution were added into the wells of the assay plate and incubated for 2-3 minutes at room temperature. The donor emission wavelength (460 nm) and acceptor emission wavelength (600 nm) were measured in the EnVisionplate reader. The BRET Ratios were calculated. BRET Ratio=[(Acceptor sample÷Donor sample)−(Acceptor no-tracer control÷Donor no-tracer control)]. The IC50 values of compounds were calculated with Prism GraphPad program.
NanoBRET™ Target Engagement Assay Protocol
1. Transient Transfection of HEK-293 Cells NanoLuc® Fusion Vector DNA
• 1). Cultivate HEK-293 cells (70-80% confluence) appropriately prior to assay. Trypsinize and collect HEK-293 cells. • 2). Prepare lipid: DNA complexes as follows: • a. Prepare a […] solution of DNA in Opti-MEM without serum that consists of the following ratios of carrier DNA and DNA encoding NanoLuc® fusion. 9.0 µg/mL of Transfection Carrier DNA, […] of NanoLuc fusion vector DNA and 1 mL of Opti-MEM without phenol red. Mix thoroughly. • b. Add 30 l of FuGENE HD Transfection Reagent into each milliliter of DNA mixture to form lipid: DNA complex. • c. Mix by inversion 10 times. • d. Incubate at ambient temperature for 20 minutes to allow complexes to form. • 3). In a sterile, conical tube, mix 1 part of lipid: DNA complex with 20 parts of HEK-293 cells in suspension. Mix gently by inversion 5 times. • 4). Dispense cells+lipid: DNA complex into a sterile tissue culture dish and incubate for 22-24 hours. 2. Addition of Test Compounds (dry plate shooting)
Each test compound is delivered from the compound source plate to the wells of 384-well white NBS plate by Echo 550.
3. […]

NF-κB [1] = assay: NF-kB SEAP reporter assay in THP-1-Blue NF-κB cells, hIL1B stimulation; conditions: hIL1B 1 ng/mL, read-out: NF-κB IL1B IC50
Procedure: (§1) THP-1-Blue NF-xB cells (InvivoGen) carrying a stable integrated NF-κB-inducible secreted embryonic alkaline phosphatase (SEAP) reporter construct were plated at a concentration of 1×10^5 cells per well. The cells were stimulated with Pam3CSK4 (1 ng/mL) or hIL1B (1 ng/mL). After 10-20 minutes, the cells were then treated with vehicle (DMSO) or serial dilutions of the test compounds (10 doses tested for each test compound, with a 1:10 dilution series starting at 1 μM or 3 μM) with a final volume of 200 μL for 24 hours at 37° C. After 24 hours, the cells were centrifuged and 20 μL supernatant was incubated with 180 μL QUANTI-Blue reagent at 37° C. for 30-60 minutes. The levels of NF-κB-induced was measured in a microplate reader at 620 nm.

NF-κB [2] = assay: NF-kB SEAP reporter assay in THP-1-Blue NF-κB cells, Pam3CSK4 stimulation; conditions: Pam3CSK4 1 ng/mL, read-out: NF-κB Pam3SCK4 IC50
Procedure: as §1

IC50 (FLT3) [nM] | SMILES | further results
40 | CC(O)(c1cn2c(-c3cccc(N[C@H]4CNC[C@@H]4F)n3)cnc2cn1)C(F)(F)F (single isomer, unassigned) [Compound 78] | –
15 | CC(O)(c1cn2c(-c3cccc(N[C@@H]4CCCNC4)n3)cnc2cn1)C(F)(F)F (single isomer, unassigned) [Compound 81] | IC50 (NF-κB [1]; 24 h): 72 nM; IC50 (NF-κB [2]; 24 h): 24 nM
40 | CC(O)(c1cn2c(-c3cccc(N[C@H]4CNCC[C@@H]4F)n3)cnc2cn1)C(F)(F)F (single isomer, unassigned) [Compound 82] | IC50 (NF-κB [1]; 24 hours): 30 nM; IC50 (NF-κB [2]; 24 hours): 12 nM
6 | CC1(c2cn3c(-c4cccc(N[C@H]5CNC[C@@H]5F)n4)cnc3cn2)CC1 [Compound 1, N-((3S,4S)-4-fluoropyrrolidin-3-yl)-6-(6-(1-methylcyclopropyl)imidazo[1,2-a]pyrazin-3-yl)pyridin-2-amine] | IC50 (NF-κB [1]; 24 h): 9 nM; IC50 (NF-κB [2]; 24 h): 6 nM
3 | CC1(c2cn3c(-c4cccc(N[C@@H]5CCNC5)n4)cnc3cn2)CC1 [Compound 3, (R)-6-(6-(1-methylcyclopropyl)imidazo[1,2-a]pyrazin-3-yl)-N-(pyrrolidin-3-yl)pyridin-2-amine] | –
1500 | CC(C)(O)c1cn2c(-c3nc(N[C@H]4CNC[C@@H]4F)c(F)cc3F)cnc2cn1 [Compound 33, 2-(3-(3,5-difluoro-6-(((3S,4S)-4-fluoropyrrolidin-3-yl)amino)pyridin-2-yl)imidazo[1,2-a]pyrazin-6-yl)propan-2-ol] | –
177 | CC(C)(O)c1cn2c(-c3nc(N[C@@H]4CCCNC4)c(F)cc3F)cnc2cn1 [Compound 34, (R)-2-(3-(3,5-difluoro-6-(piperidin-3-ylamino)pyridin-2-yl)imidazo[1,2-a]pyrazin-6-yl)propan-2-ol] | –
31 | O=C1CCCN1c1cn2c(-c3nc(N[C@@H]4CCCNC4)c(F)cc3F)cnc2cn1 [Compound 108, (R)-1-(3-(3,5-difluoro-6-(piperidin-3-ylamino)pyridin-2-yl)imidazo[1,2-a]pyrazin-6-yl)pyrrolidin-2-one] | –
8 | CC(C)(C)c1cn2c(-c3nc(N[C@@H]4CCCNC4)c(F)cc3F)cnc2cn1 [Compound 126, (R)-6-(6-(tert-butyl)imidazo[1,2-a]pyrazin-3-yl)-3,5-difluoro-N-(piperidin-3-yl)pyridin-2-amine] | –
16 | CC(C)(C)c1cn2c(-c3nc(N[C@H]4CNCC[C@@H]4F)c(F)cc3F)cnc2cn1 [Compound 127, 6-(6-(tert-butyl)imidazo[1,2-a]pyrazin-3-yl)-3,5-difluoro-N-((3S,4S)-4-fluoropiperidin-3-yl)pyridin-2-amine] | –
11 | CC(C)(C)c1cn2c(-c3cccc(N[C@H]4CNCC[C@@H]4F)n3)cnc2cn1 [Compound 130, 6-(6-(tert-butyl)imidazo[1,2-a]pyrazin-3-yl)-N-((3S,4S)-4-fluoropiperidin-3-yl)pyridin-2-amine] | –

Continued, compound first:

SMILES | IC50 (FLT3) [nM] | further results
CC(O)(c1cn2c(-c3cccc(N[C@H]4CNC[C@@H]4F)n3)cnc2cn1)C(F)(F)F (single isomer, unassigned) [Compound 77] | 277 | –
CC(O)(c1cn2c(-c3cccc(N[C@H]4CNCC[C@@H]4F)n3)cnc2cn1)C(F)(F)F (single isomer, unassigned) [Compound 80] | 94 | IC50 (NF-κB [1]; 24 hours): 124 nM; IC50 (NF-κB [2]; 24 hours): 44 nM
CC1(c2cn3c(-c4cccc(N[C@H]5CNCC56CC6)n4)cnc3cn2)CC1 [Compound 5, (R)-N-(6-(6-(1-methylcyclopropyl)imidazo[1,2-a]pyrazin-3-yl)pyridin-2-yl)-5-azaspiro[2.4]heptan-7-amine] | < 0.5 | –
CC(C)(O)c1cn2c(-c3cccc(N[C@@H]4CCCNC4)n3)cnc2cn1 [Compound 30, (R)-2-(3-(6-(piperidin-3-ylamino)pyridin-2-yl)imidazo[1,2-a]pyrazin-6-yl)propan-2-ol] | – | IC50 (NF-κB [1]; 24 hours): 40 nM; IC50 (NF-κB [2]; 24 hours): 28 nM
FC(F)(F)COc1cn2c(-c3cccc(N[C@@H]4CCNC4)n3)cnc2cn1 [Compound 38, (R)-N-(pyrrolidin-3-yl)-6-(6-(2,2,2-trifluoroethoxy)imidazo[1,2-a]pyrazin-3-yl)pyridin-2-amine] | 12 | –
Cn1cc(-c2cn3c(-c4cccc(N[C@@H]5CCCNC5)n4)cnc3cn2)cn1 [Compound 43, (R)-6-(6-(1-methyl-1H-pyrazol-4-yl)imidazo[1,2-a]pyrazin-3-yl)-N-(piperidin-3-yl)pyridin-2-amine] | 73 | –
FC(F)COc1cn2c(-c3cccc(N[C@H]4CNC[C@@H]4F)n3)cnc2cn1 [Compound 58, 6-(6-(2,2-difluoroethoxy)imidazo[1,2-a]pyrazin-3-yl)-N-((3S,4S)-4-fluoropyrrolidin-3-yl)pyridin-2-amine] | 52 | –
O=C1NCCN1c1cn2c(-c3cccc(N[C@H]4CNCC[C@@H]4F)n3)cnc2cn1 [Compound 118, 1-(3-(6-(((3S,4S)-4-fluoropiperidin-3-yl)amino)pyridin-2-yl)imidazo[1,2-a]pyrazin-6-yl)imidazolidin-2-one] | – | IC50 (NF-κB [1]; 24 h): 406 nM; IC50 (NF-κB [2]; 24 h): 101 nM
CC(C)(C)c1cn2c(-c3nc(N[C@H]4CNC[C@@H]4F)c(F)cc3F)cnc2cn1 [Compound 125] | 937 | –
